Test systems include 786-0 renal; A498 renal; NCI-H226 lung; OVCAR-5 ovarian; SR leukemia; SW-620 colon; T-47D breast; TK-10 renal; UACC-257 melanoma; K-562 leukemia; OVCAR-4 ovarian; U251 CNS; SK-OV-3 ovarian.
Assay in all cases: inhibition of tumour cell growth, NCI panel, 48 h

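In this assay, cells in 96-well plates receive the compound at five concentrations for 48 hours. Endpoints are linearly interpolated between the surrounding concentrations. At the TGI there is no net growth.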

For the compound `CC(=O)Nc1ccc2c(C)c3c4ccccc4n(C)c3nc2n1`, the TGI in the experiment on 786-0 renal was 35.3 µM; in the experiment with A498 renal it was 46.2 µM; in the experiment with NCI-H226 lung, more than 100 µM; with OVCAR-5 ovarian, 51.6 µM; in the experiment on SR leukemia, 45.6 µM; in the experiment on SW-620 colon, 46.6 µM. Besides, the TGI is more than 100 µM in the experiment with T-47D breast, 94.8 µM in the experiment with TK-10 renal and 57.5 µM with UACC-257 melanoma.

`COc1ccc(OC)c2nc3c(C(=O)NCCN(C)C)cccc3nc12`: the TGI with 786-0 renal was more than 76.3 µM; in the experiment on A498 renal, 29.4 µM; in the experiment with K-562 leukemia, 23.2 µM; in the experiment on NCI-H226 lung, 27.5 µM; with OVCAR-4 ovarian, 11.1 µM; in the experiment with OVCAR-5 ovarian, more than 78.2 µM. For the same compound, the TGI in the experiment with SW-620 colon is 21.7 µM; in the experiment on T-47D breast, more than 100 µM; in the experiment on TK-10 renal, 46.8 µM; with U251 CNS, 28.6 µM; in the experiment with UACC-257 melanoma, 15.3 µM.

For `Cc1ccccc1N(C)S(=O)(=O)c1ccccc1[N+](=O)[O-]`, the TGI in the experiment on 786-0 renal, with K-562 leukemia, in the experiment on NCI-H226 lung, in the experiment on OVCAR-4 ovarian, in the experiment on OVCAR-5 ovarian and in the experiment with SK-OV-3 ovarian was more than 100 µM each time. Moreover, the TGI in the experiment on SR leukemia, with SW-620 colon, in the experiment on T-47D breast, in the experiment with TK-10 renal, in the experiment on U251 CNS and with UACC-257 melanoma was more than 100 µM throughout.

With `C=C(C)[C@@H]1CC[C@]2(C(=O)O)CC[C@]3(C)[C@H](CC[C@@H]4[C@@]5(C)CC[C@H](C(=O)/C=C/c6ccc(O)cc6)C(C)(C)[C@@H]5CC[C@]43C)[C@@H]12`, the TGI with 786-0 renal was more than 100 µM; with A498 renal, 26.5 µM; with K-562 leukemia it was more than 100 µM; in the experiment with OVCAR-4 ovarian, 72.4 µM; with OVCAR-5 ovarian, 23.7 µM; in the experiment on SK-OV-3 ovarian it was 36.3 µM. For the same compound, the TGI in the experiment on SR leukemia is more than 100 µM; in the experiment on SW-620 colon, 15.2 µM; in the experiment with T-47D breast it was 20.7 µM; in the experiment on TK-10 renal, 20.9 µM; with U251 CNS, more than 100 µM; in the experiment on UACC-257 melanoma, 16.5 µM.

Take `CC1OC(O[C@H]2CC[C@]3(C)[C@H]4CC=C5[C@@H]6[C@@H](C)[C@H](C)CC[C@]6(C(=O)O)CC[C@@]5(C(=O)O)[C@]4(C)CC[C@H]3C2(C)C)C(O)C(O)C1O` (stereo partly specified): the TGI with 786-0 renal, in the experiment on A498 renal, in the experiment with K-562 leukemia, in the experiment on OVCAR-4 ovarian, in the experiment on OVCAR-5 ovarian and with SK-OV-3 ovarian was more than 75 µM each time. Also, the TGI in the experiment on SR leukemia, in the experiment with SW-620 colon, in the experiment with T-47D breast, in the experiment with TK-10 renal, with U251 CNS and with UACC-257 melanoma was more than 75 µM each time.

With `C=C[C@@]1(C)CC(=O)[C@]2(O)[C@@]3(C)[C@@H](OC(C)=O)CCC(C)(C)[C@@H]3[C@H](OC(C)=O)[C@H](OC(C)=O)[C@@]2(C)O1`, the TGI in the experiment on 786-0 renal, with A498 renal, in the experiment with K-562 leukemia, in the experiment on NCI-H226 lung, in the experiment on OVCAR-4 ovarian and with OVCAR-5 ovarian was more than 100 µM each time. In addition, the TGI in the experiment with SK-OV-3 ovarian, with SR leukemia, in the experiment with SW-620 colon, in the experiment on T-47D breast, with U251 CNS and in the experiment on UACC-257 melanoma was more than 100 µM in each case.

For the compound `Cc1cc(Cl)ccc1N=NC(=O)NNc1ccc(Cl)cc1C`, the TGI with 786-0 renal came to 29.9 µM; with A498 renal, 21.8 µM; in the experiment on K-562 leukemia it was 63 µM; with NCI-H226 lung, 36.1 µM; in the experiment with OVCAR-4 ovarian it was 38.6 µM; in the experiment with OVCAR-5 ovarian, 30.7 µM. Moreover, the TGI in the experiment on SR leukemia was found to be 80.7 µM; with SW-620 colon it was 30.2 µM; with T-47D breast, 26.6 µM; with TK-10 renal it was 38.3 µM; with U251 CNS, 31.4 µM; with UACC-257 melanoma, 33.1 µM.

Take `CN(C)CCNc1ccc2c(=O)n(CCN(C)C)c(=O)n3c4ccc(N)cc4c(=O)c1c23`: the TGI with 786-0 renal is 1.18 µM; with A498 renal it was 2.37 µM; with K-562 leukemia it was 0.0358 µM; in the experiment on NCI-H226 lung, 0.573 µM; in the experiment with OVCAR-4 ovarian, 0.996 µM; with OVCAR-5 ovarian, 0.844 µM. Further, the TGI in the experiment on SK-OV-3 ovarian stood at 2.7 µM; with SW-620 colon it was 0.637 µM; in the experiment on T-47D breast, 4.64 µM; in the experiment with TK-10 renal it was 6.13 µM; with U251 CNS it was 0.988 µM; in the experiment on UACC-257 melanoma, 2.51 µM.

For the compound `CCCCCc1c2nc(c(CCCCC)c3ccc([nH]3)c(CCCCC)c3ccc([nH]3)c(CCCCC)c3nc1C=C3)C=C2`, the TGI with 786-0 renal, with K-562 leukemia, in the experiment with OVCAR-4 ovarian, with OVCAR-5 ovarian, in the experiment with SK-OV-3 ovarian and in the experiment with SR leukemia was more than 100 µM each time. Moreover, the TGI in the experiment on SW-620 colon, in the experiment with T-47D breast, in the experiment with TK-10 renal, in the experiment on U251 CNS and with UACC-257 melanoma was more than 100 µM throughout.

Take `CSc1cc(Cl)c(C)cc1S(=O)(=O)NC(=O)NNc1ccc(F)c(Cl)c1`: the TGI in the experiment with 786-0 renal, in the experiment on A498 renal, with K-562 leukemia, in the experiment on NCI-H226 lung, with OVCAR-4 ovarian and with OVCAR-5 ovarian was more than 100 µM each time. The TGI in the experiment on SK-OV-3 ovarian, in the experiment on SR leukemia, in the experiment with SW-620 colon, with T-47D breast and with U251 CNS was more than 100 µM throughout.

On to `Cc1ccc(S(=O)(=O)N2CCCCN(S(=O)(=O)c3ccc(C)cc3)Cc3ccccc3OCCOCCOc3c4cccc3Cc3cccc5c3OCCOCCOc3ccccc3CN(S(=O)(=O)c3ccc(C)cc3)CCCN(S(=O)(=O)c3ccc(C)cc3)Cc3ccccc3OCCOCCOc3c(cccc3C4)Cc3cccc(c3OCCOCCOc3ccccc3C2)C5)cc1`, for which the TGI in the experiment with 786-0 renal, with A498 renal, with K-562 leukemia, with NCI-H226 lung, in the experiment on OVCAR-4 ovarian and in the experiment on OVCAR-5 ovarian was more than 100 µM each time. For the same compound, the TGI in the experiment on SK-OV-3 ovarian, in the experiment with SW-620 colon, in the experiment with T-47D breast, in the experiment with TK-10 renal, with U251 CNS and in the experiment with UACC-257 melanoma was more than 100 µM each time.

Values taken from PubChem BioAssay (NCI).
